# Measured values taken from US20200361871A1 (Enterprise Therapeutics Ltd., priority 2018, published 2020).
# “Also recorded” adds a separate entry of the source.
# Assays:
# [1] = Storage of forms of Compound 36 at 40° C./75% RH in open vials, XRPD; type: physicochemical; settings: open vial, 14 days (2 weeks)
# Procedure: Form A was stored at 40° C./75% RH, in an open vial. […] Therefore, Form A is stable to exposure to elevated temperature and humidity for up to 2 weeks and no evidence of a hydrated form was observed.
# One sample of each of the new forms (Forms B, C, D, E, E+extra peaks, F, G and H) was analysed by ^1H NMR, TGA, DSC and stored at 40° C./75% RH. Results are summarised in Table E with Form A for comparison.
# [2] = Competitive suspension equilibration of all known forms of Compound 36 in surfactant buffers; type: physicochemical; settings: 20° C.
# Procedure: Equimolar composites of the forms of Compound 36 were stirred in each surfactant buffer configuration as follows.
# Equimolar admixtures of each form and the amorphous phase were prepared and suspended in the appropriate surfactant buffer configuration at the dose relevant concentration of 5 mg/ml and stirred at 20° C. for 13 days. Stirring was suspended, the slurries were centrifuged, supernatant decanted and the pellets were dried under reduced pressure and analysed.
# All known forms of Compound 36 were combined in approximately equimolar proportions. Each composite was suspended in Tween/Span and Tween 80 buffers (5 mg/ml concentration) in two vessels and stirred at 20° C. […] Therefore, order of succession in formulation vehicles under ambient storage supported Form A as the preferred form.
# [3] = Solubility assessment of Compound 36 Form A in solvents at 50° C.; type: physicochemical; set-up: key to Solubility (dissolution in solvent): ✓: material dissolved at 50° C.; x: material did not dissolve; ?: partial dissolution
# Procedure: Compound 36 (Form 1, approximately 30 mg) was weighed into 2 ml glass vials and was treated with aliquots of solvent. The samples were stirred at 50° C., 400 rpm, for approximately 10 minutes between addition of aliquots of solvent. Solvent was added until a clear solution was formed or a maximum of 60 volumes (1.8 ml) of solvent was reached.
# Samples that were solutions (or close to dissolution, sample in DCM) were cooled to 5° C. at 0.1° C./min and were stirred overnight. After cooling, the samples that contained solids were filtered using PTFE frits, dried under suction for approximately 30 minutes and were analysed by XRPD.
# Samples that were suspensions in 60 volumes of solvent were matured (shaken in cycles of 4 hours at 50° C./4 hours at RT). After 5 days, samples were filtered using PTFE frits, dried under suction for approximately 30 minutes and were analysed by XRPD.
# [4] = as above; type: physicochemical; settings: acetone and ethanol
# [5] = biological target: human TMEM16A (TMEM16Aabc variant) (Homo sapiens, UniProt Q5XXA6, DEL476-501, form not given); test: Automated whole-cell patch clamp (Qpatch) TMEM16A potentiator assay in FRT cells stably expressing human TMEM16A; type: cell-based
# Sequence of human TMEM16A (TMEM16Aabc variant) (Q5XXA6 with tags, fused parts or gaps DEL476-501): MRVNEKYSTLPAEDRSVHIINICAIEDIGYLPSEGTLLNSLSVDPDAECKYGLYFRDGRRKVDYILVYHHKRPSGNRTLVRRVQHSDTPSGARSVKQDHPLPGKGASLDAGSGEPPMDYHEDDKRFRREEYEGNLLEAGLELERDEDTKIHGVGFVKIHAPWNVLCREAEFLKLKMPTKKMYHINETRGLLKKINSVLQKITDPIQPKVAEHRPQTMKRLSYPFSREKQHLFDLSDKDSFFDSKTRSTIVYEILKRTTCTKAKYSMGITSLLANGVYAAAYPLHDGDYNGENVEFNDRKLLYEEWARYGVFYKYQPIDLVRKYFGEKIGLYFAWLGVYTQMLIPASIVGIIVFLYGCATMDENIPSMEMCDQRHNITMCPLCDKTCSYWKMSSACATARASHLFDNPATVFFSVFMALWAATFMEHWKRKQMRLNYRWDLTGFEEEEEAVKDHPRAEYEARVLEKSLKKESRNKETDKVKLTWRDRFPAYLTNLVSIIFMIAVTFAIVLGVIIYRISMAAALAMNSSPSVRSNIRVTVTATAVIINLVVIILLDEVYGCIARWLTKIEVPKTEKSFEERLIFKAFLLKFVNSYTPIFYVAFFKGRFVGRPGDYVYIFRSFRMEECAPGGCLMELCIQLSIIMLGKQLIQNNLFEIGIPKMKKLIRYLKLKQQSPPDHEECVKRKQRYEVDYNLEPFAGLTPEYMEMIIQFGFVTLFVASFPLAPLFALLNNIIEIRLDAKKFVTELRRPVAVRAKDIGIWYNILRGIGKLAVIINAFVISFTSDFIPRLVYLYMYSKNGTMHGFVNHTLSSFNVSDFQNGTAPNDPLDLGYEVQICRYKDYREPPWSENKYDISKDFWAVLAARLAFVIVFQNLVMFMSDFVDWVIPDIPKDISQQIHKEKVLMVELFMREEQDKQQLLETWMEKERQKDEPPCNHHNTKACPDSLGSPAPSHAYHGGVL
# How it was run: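 FRT cells stably expressing human TMEM16Aabc were recorded by automated whole-cell patch clamp, with intracellular Ca2+ buffered for ~EC20 activation, holding −70 mV and step to +70 mV at 0.05 Hz. Compound was applied cumulatively, 5 min per concentration. Peak current increase as % of baseline was fitted to give EC50 and maximum efficacy.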
compound,measurement,setting,value
"C#CC(C)(C)NC(=O)c1cc(NC(=O)Cc2cc(Cl)ccc2O)ccn1 [Compound 36 Form A, 4-[[2-(5-Chloro-2-hydroxy-phenyl)acetyl]amino]-N-(1,1-dimethylprop-2-ynyl)pyridine-2-carboxamide]",Storage at 40° C./75% RH (change of form by XRPD),[1],no change in form was detected; also recorded: No change (14 days)
same,Form produced by competitive suspension equilibration (thermodynamic stability),"[2]; TWEEN 80 (0.5 mg/ml) or TWEEN 20 (0.5 mg/ml)/SPAN 20 (0.05 mg/ml), 7 to 10 days",most thermodynamically stable form
same,Solubility (dissolution in solvent),"[3]; 2-Propanol, 5 vol, 50° C.",x
same,Solubility (dissolution in solvent),"[3]; 2-Propanol, 10 vol, 50° C.",x
same,Solubility (dissolution in solvent),"[3]; 2-Propanol, 30 vol, 50° C.",✓
same,Solubility (dissolution in solvent),"[3]; 5% aqueous ACN, 5 vol, 50° C.",x
same,Solubility (dissolution in solvent),"[3]; 5% aqueous ACN, 20 vol, 50° C.",✓
same,Solubility (dissolution in solvent),"[3]; 20% aqueous ACN, 5 vol, 50° C.",x
same,Solubility (dissolution in solvent),"[3]; 20% aqueous ACN, 10 vol, 50° C.",✓
same,Solubility (dissolution in solvent),"[3]; Acetone, 5 vol, 50° C.",✓
same,Solubility (dissolution in solvent),"[3]; Acetone, 10 vol, 50° C.",✓
same,Solubility (dissolution in solvent),"[3]; Acetonitrile, 5 vol, 50° C.",x
same,Solubility (dissolution in solvent),"[3]; Acetonitrile, 10 vol, 50° C.",x
same,Solubility (dissolution in solvent),"[3]; Acetonitrile, 30 vol, 50° C.",✓
same,Solubility (dissolution in solvent),"[3]; Dichloromethane, 5 vol, 50° C.",x
same,Solubility (dissolution in solvent),"[3]; Dichloromethane, 10 vol, 50° C.",x
same,Solubility (dissolution in solvent),"[3]; Dichloromethane, 20 vol, 50° C.",x
same,Solubility (dissolution in solvent),"[3]; Dichloromethane, 30 vol, 50° C.",x
same,Solubility (dissolution in solvent),"[3]; Ethanol, 5 vol, 50° C.",x
same,Solubility (dissolution in solvent),"[3]; Ethanol, 10 vol, 50° C.",✓
same,Solubility (dissolution in solvent),"[3]; Ethyl Acetate, 5 vol, 50° C.",x
same,Solubility (dissolution in solvent),"[3]; Ethyl Acetate, 10 vol, 50° C.",x
same,Solubility (dissolution in solvent),"[3]; Ethyl Acetate, 20 vol, 50° C.",✓
same,Solubility (dissolution in solvent),"[3]; Tetrahydrofuran, 5 vol, 50° C.",x
same,Solubility (dissolution in solvent),"[3]; Tetrahydrofuran, 10 vol, 50° C.",x
same,Solubility (dissolution in solvent),"[3]; Tetrahydrofuran, 20 vol, 50° C.",✓
same,Solubility (dissolution in solvent),"[3]; Water, 5 vol, 50° C.",x
same,Solubility (dissolution in solvent),"[3]; Water, 10 vol, 50° C.",x
same,Solubility (dissolution in solvent),"[3]; Water, 20 vol, 50° C.",x
same,Solubility (dissolution in solvent),"[3]; Water, 30 vol, 50° C.",x
same,Solubility (dissolution in solvent),"[3]; Water, 40 vol, 50° C.",x
same,Solubility (dissolution in solvent),"[3]; Water, 50 vol, 50° C.",x
same,Solubility (dissolution in solvent),"[3]; Water, 60 vol, 50° C.",x
same,Solubility (dissolution in solvent),"[3]; n-Heptane, 5 vol, 50° C.",x
same,Solubility (dissolution in solvent),"[3]; n-Heptane, 10 vol, 50° C.",x
same,Solubility (dissolution in solvent),"[3]; n-Heptane, 20 vol, 50° C.",x
same,Solubility (dissolution in solvent),"[3]; n-Heptane, 30 vol, 50° C.",x
same,Solubility (dissolution in solvent),"[3]; n-Heptane, 40 vol, 50° C.",x
same,Solubility (dissolution in solvent),"[3]; n-Heptane, 50 vol, 50° C.",x
same,Solubility (dissolution in solvent),"[3]; n-Heptane, 60 vol, 50° C.",x
same,Solubility (dissolution in solvent),"[3]; tert-Butylmethyl Ether, 5 vol, 50° C.",x
same,Solubility (dissolution in solvent),"[3]; tert-Butylmethyl Ether, 10 vol, 50° C.",x
same,Solubility (dissolution in solvent),"[3]; tert-Butylmethyl Ether, 20 vol, 50° C.",x
same,Solubility (dissolution in solvent),"[3]; tert-Butylmethyl Ether, 30 vol, 50° C.",x
same,Solubility (dissolution in solvent),"[3]; tert-Butylmethyl Ether, 40 vol, 50° C.",x
same,Solubility (dissolution in solvent),"[3]; tert-Butylmethyl Ether, 50 vol, 50° C.",x
same,Solubility (dissolution in solvent),"[3]; tert-Butylmethyl Ether, 60 vol, 50° C.",x
"C#CC(C)(C)NC(=O)c1cc(NC(=O)Cc2cc(Cl)ccc2O)ccn1 [Example 36, 4-[[2-(5-Chloro-2-hydroxy-phenyl)acetyl]amino]-N-(1,1-dimethylprop-2-ynyl)pyridine-2-carboxamide]",Form produced by competitive suspension equilibration (XRPD),"[2]; Tween/Span and Tween 80 buffers, 5 mg/ml, 13 days",consistent with Form A
same,"Solubility (relative, in words)",[4],most soluble
same,Solubility (in words),[3]; acetonitrile/water mixtures,freely soluble
same,Solubility (dissolution in anti-solvents),"[3]; n-heptane, water and TBME, up to 60 volumes, 50° C.",no observable dissolution
same,% Potentiation @ 3.33 μM Avg,"[5]; 3.33 μM solution of test compound, percentage increase of baseline TMEM16A current",199%
same,EC50,"[5]; calculated EC50, Qpatch TMEM16A current at +70 mV",20 nM
